The values that follow come from patent US8697877B2, “Oxyindole derivatives with motilin receptor agonistic activity” (RaQualia Pharma Inc., priority 2009, dated 2014).

As a reminder, the EC50 is the concentration giving half of the maximal effect. Read a high EC50 as a less potent agent.

This assay deals with T1, human motilin receptor (GPR38) (Homo sapiens, UniProt O43193).
T1 construct: expressed in transfected cells; host or cells: CHO-K1
T1 sequence (O43193 whole entry): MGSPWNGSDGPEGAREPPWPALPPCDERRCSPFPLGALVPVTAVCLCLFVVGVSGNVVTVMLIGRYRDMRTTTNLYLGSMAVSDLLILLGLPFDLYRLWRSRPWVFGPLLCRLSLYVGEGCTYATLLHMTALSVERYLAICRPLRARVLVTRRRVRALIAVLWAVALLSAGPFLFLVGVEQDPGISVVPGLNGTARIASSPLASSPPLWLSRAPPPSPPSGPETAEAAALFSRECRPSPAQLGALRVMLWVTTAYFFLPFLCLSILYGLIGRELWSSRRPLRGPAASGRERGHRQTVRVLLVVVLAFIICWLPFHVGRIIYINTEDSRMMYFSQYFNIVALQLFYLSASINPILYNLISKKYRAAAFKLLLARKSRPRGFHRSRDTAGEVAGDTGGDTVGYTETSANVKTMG
Briefly: GPR38 (Motilin Receptor) Functional Assay, NFAT-beta-lactamase reporter in CHO-K1 cells. Format: cell-based. The procedure: The potencies and efficacies of the compounds of this invention for GPR38 can be determined by reporter assay performed on the human cloned receptor as described herein.
GPR38 (Motilin Receptor) Functional Assay
A CHO-K1 cell line stably transfected NFAT-beta-lactamase reporter and human motilin receptor gene was used. The cells were cultured in culture medium (Dulbecco's modified eagle medium containing 10% fetal bovine serum, 1 mM sodium pyruvate, 0.1 mM MEM nonessential amino acids, 25 mM HEPES buffer, 50 units/mL penicillin, 50 microg/mL streptomycin, 100 microg/mL zeocin, and 500 microg/mL G418). The cells were harvested with 0.05% trypsin EDTA and centrifuged. The cell pellets were resuspended in the culture medium and plated into a black/clear bottom 384-well plate at a density of 8000 cells per well, then incubated at 37° C. with 5% CO2 for over night (about 20 hours). On the day of assay, the culture medium was aspirated and 20 microL of assay medium (Dulbecco's modified eagle medium containing 100 units/mL penicillin and 100 microg/mL streptomycin) was added to each well, then the cell plates were placed in incubator at 37° C. with 5% CO2 for 1.5 hours. Compounds were prepared in 100% DMSO and these were diluted to 5× of final concentration with assay buffer (Hanks balanced salt solution, 20 mM HEPES, and 0.1% BSA), then dispensed into 384-well plate (5 microL/well). After incubation at 37° C. with 5% CO2 for 4.5 hours, CCF4-AM loading solution (Invitrogen Corp.) was added to each well. After incubation for 2 hours at room temperature, fluorescence intensities were measured by using plate reader FDSS (Hamamatsu Photonics K. K.) with excitation 400 nm, emission 465 nm/540 nm. Agonistic activity (EC50) was calculated from the sigmoidal dose-response curve using GraphPad Prism software (GraphPad Software, Inc.).
`CC1(C)C(=O)N(C2CCN(C(=O)[C@H](CCc3ccccc3)NC(=O)N[C@@H]3CCCNC3)CC2)c2ccccc21` [Example 49, 1-((S)-1-(4-(3,3-dimethyl-2-oxo-indolin-1-yl)piperidin-1-yl)-1-oxo-4-phenylbutan-2-yl)-3-((R)-piperidin-3-yl)urea]: the half-maximal effective concentration (EC50) is no more than 10 nM. Under `CN(C[C@@H]1CCCN1)C(=O)N[C@@H](CCc1ccccc1)C(=O)N1CCC(N2C(=O)C(C)(C)c3ccccc32)CC1` [Example 50, 3-((S)-1-(4-(3,3-dimethyl-2-oxo-indolin-1-yl)piperidin-1-yl)-1-oxo-4-phenylbutan-2-yl)-1-methyl-1-((S)-pyrrolidin-2-ylmethyl)urea] stands no more than 10 nM; under `CC1(C)C(=O)N(C2CCN(C(=O)[C@H](CCc3ccccc3)NC(=O)NC[C@H]3CCCN3)CC2)c2ccccc21` [Example 51, 1-((S)-1-(4-(3,3-dimethyl-2-oxo-indolin-1-yl)piperidin-1-yl)-1-oxo-4-phenylbutan-2-yl)-3-((R)-pyrrolidin-2-ylmethyl)urea], no more than 10 nM; under `CC1(C)C(=O)N(C2CCN(C(=O)[C@H](CCc3ccccc3)NC(=O)N[C@@H]3CCNC3)CC2)c2ccccc21` [Example 52, 1-((S)-1-(4-(3,3-dimethyl-2-oxo-indolin-1-yl)piperidin-1-yl)-1-oxo-4-phenylbutan-2-yl)-3-((R)-pyrrolidin-3-yl)urea], no more than 10 nM. Under `CC1(C)C(=O)N(C2CCN(C(=O)[C@H](CCc3ccccc3)NC(=O)NC[C@@H]3CCNC3)CC2)c2ccccc21` [Example 53, 1-((S)-1-(4-(3,3-dimethyl-2-oxo-indolin-1-yl)piperidin-1-yl)-1-oxo-4-phenylbutan-2-yl)-3-((R)-pyrrolidin-3-ylmethyl)urea] stands no more than 10 nM.

`C[C@@H]1CN(C(=O)N[C@@H](CCc2ccccc2)C(=O)N2CCC(N3C(=O)C(C)(C)c4ccccc43)CC2)CCN1` [Example 54, (R)-N-((S)-1-(4-(3,3-dimethyl-2-oxoindolin-1-yl)piperidin-1-yl)-1-oxo-4-phenylbutan-2-yl)-3-methyl-piperazine-1-carboxamide] came in with an EC50 of no more than 10 nM. `CCC1(NC(=O)N[C@@H](CCc2ccccc2)C(=O)N2CCC(N3C(=O)C(C)(C)c4ccccc43)CC2)CCNCC1` [Example 55, (S)-1-(1-(4-(3,3-dimethyl-2-oxo-indolin-1-yl)piperidin-1-yl)-1-oxo-4-phenylbutan-2-yl)-3-(4-ethylpiperidin-4-yl)urea] gave a concentration giving a half-maximal response (EC50) of no more than 10 nM. In turn, `CC1(NC(=O)N[C@@H](CCc2ccccc2)C(=O)N2CCC(N3C(=O)C(C)(C)c4ccccc43)CC2)CCNCC1` [Example 56, (S)-1-(1-(4-(3,3-dimethyl-2-oxo-indolin-1-yl)piperidin-1-yl)-1-oxo-4-phenylbutan-2-yl)-3-(4-methyl-piperidin-4-yl)urea] displayed an EC50 of no more than 10 nM. With `CC1(C)C(=O)N(C2CCN(C(=O)[C@H](CCc3ccccc3)NC(=O)N[C@H]3CCNC3)CC2)c2ccccc21` [Example 57, 1-((S)-1-(4-(3,3-dimethyl-2-oxo-indolin-1-yl)piperidin-1-yl)-1-oxo-4-phenylbutan-2-yl)-3-((S)-pyrrolidin-3-yl)urea], the 50% effective concentration (EC50) is no more than 10 nM. The compound `CC1(C)C(=O)N(C2CCN(C(=O)[C@H](CCc3ccccc3)NC(=O)NC[C@@H]3CCCCN3)CC2)c2ccccc21` [Example 60, 1-((S)-1-(4-(3,3-dimethyl-2-oxo-indolin-1-yl)piperidin-1-yl)-1-oxo-4-phenylbutan-2-yl)-3-((S)-piperidin-2-ylmethyl)urea] showed an EC50 of no more than 10 nM. On to `CC1(C)C(=O)N(C2CCN(C(=O)[C@H](CCc3ccccc3)NC(=O)NC[C@@H]3CCCNC3)CC2)c2ccccc21` [Example 61, 1-((S)-1-(4-(3,3-dimethyl-2-oxo-indolin-1-yl)piperidin-1-yl)-1-oxo-4-phenylbutan-2-yl)-3-((R)-piperidin-3-ylmethyl)urea], for which the 50% effective concentration (EC50) was no more than 10 nM. Then `CC(C)(N)CNC(=O)N[C@@H](CCc1ccccc1)C(=O)N1CCC(N2C(=O)C(C)(C)c3ccccc32)CC1` [Example 62, (S)-1-(2-amino-2-methylpropyl)-3-(1-(4-(3,3-dimethyl-2-oxoindolin-1-yl)piperidin-1-yl)-1-oxo-4-phenyl-butan-2-yl)urea], with no more than 10 nM; and `CN(C1CC1)[C@H]1CCN(C(=O)N[C@@H](CCc2ccccc2)C(=O)N2CCC(N3C(=O)C(C)(C)c4ccccc43)CC2)C1` [Example 63, (S)-3-(cyclopropyl(methyl)amino)-N-((S)-1-(4-(3,3-dimethyl-2-oxo-indolin-1-yl)piperidin-1-yl)-1-oxo-4-phenylbutan-2-yl)pyrrolidine-1-carboxamide], with no more than 10 nM; and `CC1(C)C(=O)N(C2CCN(C(=O)[C@H](CCc3ccccc3)NC(=O)NCCN3CCCC3)CC2)c2ccccc21` [Example 64, (S)-1-(1-(4-(3,3-dimethyl-2-oxo-indolin-1-yl)piperidin-1-yl)-1-oxo-4-phenylbutan-2-yl)-3-(2-(pyrrolidin-1-yl)ethyl)urea], with no more than 10 nM. As to `CN(C)CCNC(=O)N[C@@H](CCc1ccccc1)C(=O)N1CCC(N2C(=O)C(C)(C)c3ccccc32)CC1` [Example 65, (S)-1-(1-(4-(3,3-dimethyl-2-oxo-indolin-1-yl)piperidin-1-yl)-1-oxo-4-phenylbutan-2-yl)-3-(2-(dimethyl-amino)ethyl)urea], the EC50 is no more than 10 nM. Under `CN(C)[C@H]1CCN(C(=O)N[C@@H](CCc2ccccc2)C(=O)N2CCC(N3C(=O)C(C)(C)c4ccccc43)CC2)C1` [Example 67, (S)—N—((S)-1-(4-(3,3-dimethyl-2-oxoindolin-1-yl)piperidin-1-yl)-1-oxo-4-phenylbutan-2-yl)-3-(dimethylamino)pyrrolidine-1-carboxamide] stands no more than 10 nM; under `CN1CCC[C@H]1CNC(=O)N[C@@H](CCc1ccccc1)C(=O)N1CCC(N2C(=O)C(C)(C)c3ccccc32)CC1` [Example 68, 1-((S)-1-(4-(3,3-dimethyl-2-oxo-indolin-1-yl)piperidin-1-yl)-1-oxo-4-phenylbutan-2-yl)-3-(((S)-1-methylpyrrolidin-2-yl)methyl)urea], no more than 10 nM; under `CN1CCC(C)(NC(=O)N[C@@H](CCc2ccccc2)C(=O)N2CCC(N3C(=O)C(C)(C)c4ccccc43)CC2)CC1` [Example 69, (S)-1-(1-(4-(3,3-dimethyl-2-oxo-indolin-1-yl)piperidin-1-yl)-1-oxo-4-phenylbutan-2-yl)-3-(1,4-dimethylpiperidin-4-yl)urea], no more than 10 nM.

Compound `CN[C@H]1CCN(C(=O)N[C@@H](CCc2ccccc2)C(=O)N2CCC(N3C(=O)C(C)(C)c4cc(F)ccc43)CC2)C1` [Example 70, (S)—N—((S)-1-(4-(5-fluoro-3,3-dimethyl-2-oxoindolin-1-yl)piperidin-1-yl)-1-oxo-4-phenylbutan-2-yl)-3-(methylamino)pyrrolidine-1-carboxamide] returned an EC50 of no more than 10 nM. Under `CC1(C)C(=O)N(C2CCN(C(=O)[C@H](CCc3ccccc3)NC(=O)NC[C@@H]3CCCN3)CC2)c2ccc(F)cc21` [Example 71, 1-((S)-1-(4-(5-fluoro-3,3-dimethyl-2-oxoindolin-1-yl)piperldin-1-yl)-1-oxo-4-phenylbutan-2-yl)-3-((S)-pyrrolidin-2-ylmethyl)urea] stands no more than 10 nM. Turning to `CC1(NC(=O)N[C@@H](CCc2ccccc2)C(=O)N2CCC(N3C(=O)C(C)(C)c4cc(F)ccc43)CC2)CCNCC1` [Example 72], the EC50 is no more than 10 nM. For the compound `CC1(C)C(=O)N(C2CCN(C(=O)[C@H](Cc3ccccc3C(F)(F)F)NC(=O)C3CCNCC3)CC2)c2ccccc21` [Example 78, (S)-N-(1-(4-(3,3-dimethyl-2-oxoindolin-1-yl)piperidin-1-yl)-1-oxo-3-(2-(trifluoro-methyl)phenyl)propan-2-yl)piperidine-4-carboxamide], the EC50 is no more than 10 nM. Under `CC1(C)C(=O)N(C2CCN(C(=O)[C@H](Cc3ccccc3Cl)NC(=O)C3CCNCC3)CC2)c2ccccc21` [Example 79, (S)-N-(3-(2-chlorophenyl)-1-(4-(3,3-dimethyl-2-oxo-indolin-1-yl)piperidin-1-yl)-1-oxopropan-2-yl) piperidine-4-carboxamide] stands no more than 10 nM; under `CC1(C)C(=O)N(C2CCN(C(=O)[C@H](Cc3ccccc3)NC(=O)[C@@H]3CCCNC3)CC2)c2ccccc21` [Example 82, (R)-N-((S)-1-(4-(3,3-dimethyl-2-oxoindolin-1-yl)piperidin-1-yl)-1-oxo-3-phenylpropan-2-yl) piperidine-3-carboxamide], no more than 10 nM. `CC1(C)C(=O)N(C2CCN(C(=O)[C@H](Cc3ccccc3F)NC(=O)[C@@H]3CCCNC3)CC2)c2ccccc21` [Example 83, (R)-N-((S)-1-(4-(3,3-dimethyl-2-oxoindolin-1-yl)piperidin-1-yl)-3-(2-fluorophenyl)-1-oxo-propan-2-yl)piperidine-3-carboxamide] came in with an EC50 of no more than 10 nM.
